Active and inactive are the calls of the source. No cut-off for these calls is given here.
Legend:
[1] = target: T1, Stearoyl-CoA desaturase (Homo sapiens) (UniProt O00767); test: Inhibition of SCD1 in human HepG2 cells assessed as decrease in 18:1/18:0 desaturase index AT 10 uM after 72 hrs by gas chromatographic analysis; type: cell-based
T1 sequence (whole entry): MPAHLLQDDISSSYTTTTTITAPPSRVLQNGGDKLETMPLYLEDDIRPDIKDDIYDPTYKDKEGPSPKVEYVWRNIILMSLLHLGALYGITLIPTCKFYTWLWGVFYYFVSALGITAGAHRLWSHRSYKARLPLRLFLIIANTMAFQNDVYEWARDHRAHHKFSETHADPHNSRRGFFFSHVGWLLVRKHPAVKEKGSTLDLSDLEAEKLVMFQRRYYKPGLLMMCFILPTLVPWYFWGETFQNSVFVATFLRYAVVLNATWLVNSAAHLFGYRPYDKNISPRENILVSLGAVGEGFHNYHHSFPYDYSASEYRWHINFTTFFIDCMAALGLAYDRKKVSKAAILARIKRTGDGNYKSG

[2] = target: T1, Stearoyl-CoA desaturase (Homo sapiens); test: Inhibition of SCD1 in human HepG2 cells assessed as decrease in 18:1/18:0 desaturase index after 72 hrs by gas chromatographic analysis; type: cell-based
[3] = target: T1, Stearoyl-CoA desaturase (Homo sapiens); test: Inhibition of SCD1 in human HepG2 cells assessed as decrease in 16:1/16:0 desaturase index at 10 uM after 72 hrs by gas chromatographic analysis; type: cell-based
[4] = target: T1, Stearoyl-CoA desaturase (Homo sapiens); test: Inhibition of SCD1 in human HepG2 cells assessed as decrease in 16:1/16:0 desaturase index after 72 hrs by gas chromatographic analysis; type: cell-based
[5] = target: T1, Stearoyl-CoA desaturase (Homo sapiens); test: Inhibition of SCD1 in human HepG2 cells assessed as increase in cellular elongase index at 10 uM after 72 hrs by gas chromatographic analysis; type: cell-based
[6] = target: T1, Stearoyl-CoA desaturase (Homo sapiens); test: Inhibition of SCD1 in human HepG2 cells assessed as decrease in cellular elongase index at 10 uM after 72 hrs by gas chromatographic analysis; type: cell-based
[7] = target: T1, Stearoyl-CoA desaturase (Homo sapiens); test: Inhibition of SCD1 in human HepG2 cells assessed as decrease in cellular lipid accumulation at 10 uM after 48 hrs by Oil Red O staining-based assay; type: cell-based
[8] = target: Receptor-type tyrosine-protein kinase FLT3 (Homo sapiens) (UniProt P36888); test: Inhibition of recombinant human N-terminal GST-tagged FLT3 cytoplasmic domain (564 to 993 residues) expressed in baculovirus expression system at 10 uM by TR-FRET assay relative to control
Sequence of Receptor-type tyrosine-protein kinase FLT3 (Homo sapiens) (P36888 whole entry, the tested form may be a part): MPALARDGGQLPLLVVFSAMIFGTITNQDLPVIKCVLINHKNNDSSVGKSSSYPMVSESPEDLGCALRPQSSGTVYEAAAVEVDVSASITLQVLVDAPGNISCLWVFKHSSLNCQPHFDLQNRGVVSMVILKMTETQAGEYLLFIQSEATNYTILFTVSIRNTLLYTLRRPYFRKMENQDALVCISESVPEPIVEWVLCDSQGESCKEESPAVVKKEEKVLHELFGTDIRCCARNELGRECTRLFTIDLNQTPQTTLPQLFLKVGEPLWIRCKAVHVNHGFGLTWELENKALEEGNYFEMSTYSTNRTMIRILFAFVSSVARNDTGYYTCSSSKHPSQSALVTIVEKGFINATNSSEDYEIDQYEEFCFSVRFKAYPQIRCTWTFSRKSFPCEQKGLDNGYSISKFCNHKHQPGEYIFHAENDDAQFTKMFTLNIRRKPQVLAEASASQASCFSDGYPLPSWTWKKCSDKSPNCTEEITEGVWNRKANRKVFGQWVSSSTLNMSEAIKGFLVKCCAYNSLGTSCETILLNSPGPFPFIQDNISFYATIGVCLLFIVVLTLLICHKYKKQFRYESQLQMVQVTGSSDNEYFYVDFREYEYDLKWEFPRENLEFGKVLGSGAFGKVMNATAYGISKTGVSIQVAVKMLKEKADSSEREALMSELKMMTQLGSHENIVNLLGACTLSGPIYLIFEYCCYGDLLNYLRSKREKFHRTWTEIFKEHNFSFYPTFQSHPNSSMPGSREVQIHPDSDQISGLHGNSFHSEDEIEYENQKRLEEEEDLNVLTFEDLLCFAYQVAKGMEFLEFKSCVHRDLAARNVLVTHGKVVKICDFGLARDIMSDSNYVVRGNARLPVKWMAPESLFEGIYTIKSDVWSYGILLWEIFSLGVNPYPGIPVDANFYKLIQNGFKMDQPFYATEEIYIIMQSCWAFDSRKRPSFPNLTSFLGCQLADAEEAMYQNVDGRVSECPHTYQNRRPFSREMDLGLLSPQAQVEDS

[9] = target: T1, Stearoyl-CoA desaturase (Homo sapiens); test: Inhibition of SCD1 in human HepG2 cells assessed as decrease in 16:1/16:0 desaturase index at 1 uM after 72 hrs by gas chromatographic analysis; type: cell-based
[10] = target: T1, Stearoyl-CoA desaturase (Homo sapiens); test: Inhibition of SCD1 in human HepG2 cells assessed as decrease in 18:1/18:0 desaturase index at 1 uM after 72 hrs by gas chromatographic analysis; type: cell-based
[11] = target: Macrophage colony-stimulating factor 1 receptor (Homo sapiens) (UniProt P07333); test: Inhibition of recombinant human N-terminal GST-tagged FMS cytoplasmic domain (538 to 972 residues) expressed in baculovirus expression system at 10 uM by TR-FRET assay relative to control
Sequence of Macrophage colony-stimulating factor 1 receptor (Homo sapiens) (P07333 whole entry, the tested form may be a part): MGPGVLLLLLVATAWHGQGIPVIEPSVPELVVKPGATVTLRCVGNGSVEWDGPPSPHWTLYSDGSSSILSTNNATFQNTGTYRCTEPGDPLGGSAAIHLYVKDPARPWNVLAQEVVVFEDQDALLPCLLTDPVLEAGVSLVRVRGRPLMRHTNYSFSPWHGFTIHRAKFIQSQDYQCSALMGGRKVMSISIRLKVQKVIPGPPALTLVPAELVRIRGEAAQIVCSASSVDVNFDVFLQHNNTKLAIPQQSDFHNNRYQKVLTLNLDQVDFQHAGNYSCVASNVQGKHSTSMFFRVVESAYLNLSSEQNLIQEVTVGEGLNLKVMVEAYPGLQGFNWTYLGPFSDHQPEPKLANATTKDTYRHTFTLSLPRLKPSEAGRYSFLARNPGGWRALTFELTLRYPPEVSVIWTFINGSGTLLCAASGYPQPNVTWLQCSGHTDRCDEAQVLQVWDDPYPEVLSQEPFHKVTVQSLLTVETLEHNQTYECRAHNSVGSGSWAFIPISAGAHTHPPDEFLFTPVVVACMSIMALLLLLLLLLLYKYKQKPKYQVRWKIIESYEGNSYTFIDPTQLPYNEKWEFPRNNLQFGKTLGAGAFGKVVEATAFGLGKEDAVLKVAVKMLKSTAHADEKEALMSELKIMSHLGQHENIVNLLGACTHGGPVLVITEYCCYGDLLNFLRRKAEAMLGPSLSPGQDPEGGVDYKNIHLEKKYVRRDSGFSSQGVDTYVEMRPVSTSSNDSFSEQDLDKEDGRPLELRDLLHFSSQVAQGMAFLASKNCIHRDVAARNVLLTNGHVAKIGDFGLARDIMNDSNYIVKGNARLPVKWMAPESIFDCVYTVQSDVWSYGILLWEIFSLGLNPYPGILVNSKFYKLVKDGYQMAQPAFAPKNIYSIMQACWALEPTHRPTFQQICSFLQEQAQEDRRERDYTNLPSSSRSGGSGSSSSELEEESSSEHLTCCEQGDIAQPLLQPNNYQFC

[12] = target: Tyrosine-protein kinase ABL1 (Homo sapiens) (UniProt P00519); test: Inhibition of full-length recombinant human N-terminal His-tagged ABL expressed in baculovirus expression system at 10 uM by TR-FRET assay relative to control
Sequence of Tyrosine-protein kinase ABL1 (Homo sapiens) (P00519 whole entry, the tested form may be a part): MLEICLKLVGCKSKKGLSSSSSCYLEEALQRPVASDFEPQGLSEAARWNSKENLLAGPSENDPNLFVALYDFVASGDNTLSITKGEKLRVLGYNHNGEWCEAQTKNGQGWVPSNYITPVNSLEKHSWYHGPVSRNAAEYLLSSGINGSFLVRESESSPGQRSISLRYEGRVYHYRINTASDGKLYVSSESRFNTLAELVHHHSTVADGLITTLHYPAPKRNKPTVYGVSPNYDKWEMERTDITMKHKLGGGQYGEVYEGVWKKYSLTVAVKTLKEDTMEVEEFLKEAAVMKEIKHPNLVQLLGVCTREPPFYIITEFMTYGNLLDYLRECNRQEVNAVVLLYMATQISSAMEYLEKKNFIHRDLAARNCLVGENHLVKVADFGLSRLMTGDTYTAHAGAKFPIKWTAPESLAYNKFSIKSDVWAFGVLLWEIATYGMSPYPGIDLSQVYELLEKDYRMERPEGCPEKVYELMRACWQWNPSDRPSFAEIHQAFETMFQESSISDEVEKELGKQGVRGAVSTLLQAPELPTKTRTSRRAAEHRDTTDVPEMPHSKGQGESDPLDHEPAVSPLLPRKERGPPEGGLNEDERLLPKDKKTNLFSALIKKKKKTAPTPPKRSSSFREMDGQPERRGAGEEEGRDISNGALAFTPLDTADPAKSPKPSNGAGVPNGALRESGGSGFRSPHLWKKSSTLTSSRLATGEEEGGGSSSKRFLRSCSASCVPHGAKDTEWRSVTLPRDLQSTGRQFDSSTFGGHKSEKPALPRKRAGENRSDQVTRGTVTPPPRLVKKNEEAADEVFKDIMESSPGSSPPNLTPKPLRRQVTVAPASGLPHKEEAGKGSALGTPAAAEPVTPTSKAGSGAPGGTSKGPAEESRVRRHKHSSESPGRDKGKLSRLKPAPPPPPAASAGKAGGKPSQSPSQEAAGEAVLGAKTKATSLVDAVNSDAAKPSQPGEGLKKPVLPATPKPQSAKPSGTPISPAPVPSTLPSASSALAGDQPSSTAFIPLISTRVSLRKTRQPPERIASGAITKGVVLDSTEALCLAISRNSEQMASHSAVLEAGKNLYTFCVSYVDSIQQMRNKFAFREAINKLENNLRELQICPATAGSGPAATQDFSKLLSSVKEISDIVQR

[13] = target: Tyrosine-protein kinase JAK2 (Homo sapiens) (UniProt O60674); test: Inhibition of recombinant human N-terminal His-tagged JAK2 catalytic domain (826 to 1132 residues) expressed in baculovirus expression system at 10 uM by TR-FRET assay relative to control
Sequence of Tyrosine-protein kinase JAK2 (Homo sapiens) (O60674 whole entry, the tested form may be a part): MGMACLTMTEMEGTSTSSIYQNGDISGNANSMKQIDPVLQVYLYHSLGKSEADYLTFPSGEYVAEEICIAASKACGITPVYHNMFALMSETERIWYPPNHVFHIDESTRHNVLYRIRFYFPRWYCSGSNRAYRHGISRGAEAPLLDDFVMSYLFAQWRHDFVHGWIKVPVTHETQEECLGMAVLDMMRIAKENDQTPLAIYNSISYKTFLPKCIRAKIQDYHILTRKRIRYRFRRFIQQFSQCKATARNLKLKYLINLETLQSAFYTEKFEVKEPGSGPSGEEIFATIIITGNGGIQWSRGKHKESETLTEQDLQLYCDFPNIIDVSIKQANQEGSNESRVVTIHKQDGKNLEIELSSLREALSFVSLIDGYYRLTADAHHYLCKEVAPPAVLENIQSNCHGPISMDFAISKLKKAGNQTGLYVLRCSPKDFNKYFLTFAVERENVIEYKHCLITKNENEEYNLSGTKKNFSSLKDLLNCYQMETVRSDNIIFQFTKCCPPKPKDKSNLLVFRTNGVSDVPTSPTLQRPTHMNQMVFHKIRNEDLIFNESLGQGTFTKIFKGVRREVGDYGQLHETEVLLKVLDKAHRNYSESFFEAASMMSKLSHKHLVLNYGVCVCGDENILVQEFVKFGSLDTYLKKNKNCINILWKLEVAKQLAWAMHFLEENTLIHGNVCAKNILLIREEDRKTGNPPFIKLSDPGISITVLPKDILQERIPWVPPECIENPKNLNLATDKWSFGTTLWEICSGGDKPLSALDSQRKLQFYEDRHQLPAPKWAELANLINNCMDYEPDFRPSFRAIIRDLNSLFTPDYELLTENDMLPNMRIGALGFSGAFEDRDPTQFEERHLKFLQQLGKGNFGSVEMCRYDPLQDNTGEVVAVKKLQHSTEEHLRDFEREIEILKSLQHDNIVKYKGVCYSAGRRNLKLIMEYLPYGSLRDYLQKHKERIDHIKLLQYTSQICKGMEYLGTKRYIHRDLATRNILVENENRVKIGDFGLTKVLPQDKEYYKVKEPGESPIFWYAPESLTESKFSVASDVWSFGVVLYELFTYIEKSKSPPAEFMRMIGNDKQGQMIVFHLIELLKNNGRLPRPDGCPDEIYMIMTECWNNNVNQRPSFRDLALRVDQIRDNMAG

[14] = target: T1, Stearoyl-CoA desaturase (Homo sapiens); test: Inhibition of SCD1 in human HepG2 cells assessed as increase in cellular elongase index at 1 uM after 72 hrs by gas chromatographic analysis; type: cell-based
[15] = target: T1, Stearoyl-CoA desaturase (Homo sapiens); test: Inhibition of SCD1 in human HepG2 cells assessed as increase in cellular elongase index after 72 hrs by gas chromatographic analysis; type: cell-based
[16] = target: T1, Stearoyl-CoA desaturase (Homo sapiens); test: Inhibition of SCD1 in human HepG2 cells assessed as decrease in cellular lipid accumulation at 1 uM after 48 hrs by Oil Red O staining-based assay; type: cell-based

Row | inhibition [1] | inhibition [2] | inhibition [3] | inhibition [4] | inhibition [5] | inhibition [6] | Compound | other results
1 | Active | Dose-dependent effect | Active | Dose-dependent effect | Active | – | CN(C)Cc1ccc(C(=O)Nc2sc3c(c2C(N)=O)CCC(CO)C3)cc1 (stereo not given) | –
2 | – | – | – | – | – | Active | NC(=O)c1c(NC(=O)c2ccc(CN3CCOCC3)cc2)sc2c1CCCC2 | –
3 | – | – | – | – | – | Active | CN(C)Cc1ccc(-c2nc3sc4c(c3c(=O)[nH]2)CCC(CO)C4)cc1 (stereo not given) | inhibition [7]: inactive
4 | – | – | – | – | – | Active | NC(=O)c1c(NC(=O)c2ccc(CN3CCOCC3)cc2)sc2c1CCCC2CCO (stereo not given) | –
5 | Active | Dose-dependent effect | Active | Dose-dependent effect | Active | – | NC(=O)c1c(NC(=O)c2ccc(CN3CCS(=O)(=O)CC3)cc2)sc2c1CCC(CO)C2 (stereo not given) | –
6 | – | – | – | – | – | Active | CCOC(=O)C1CCc2c(sc(NC(=O)c3ccc(CN4CCOCC4)cc3)c2C(N)=O)C1 (stereo not given) | –
7 | Active | Dose-dependent effect | Active | Dose-dependent effect | Active | – | NC(=O)c1c(NC(=O)c2ccc(CN3CCOCC3)cc2)sc2c1CCC(CO)C2 (stereo not given) | inhibition [8]: > 80%; inhibition [9]: Active; inhibition [10]: Active; inhibition [11]: > 80%; inhibition [12]: > 80%; inhibition [7]: Active; inhibition [13]: 45%; inhibition [14]: Active
8 | Active | Dose-dependent effect | Active | Dose-dependent effect | Active | – | O=c1[nH]c(-c2ccc(CN3CCOCC3)cc2)nc2sc3c(c12)CCC(CO)C3 (stereo not given) | –
9 | – | – | – | – | – | Active | O=c1[nH]c(-c2ccc(CN3CCCCC3)cc2)nc2sc3c(c12)CCC(CO)C3 (stereo not given) | –
10 | – | – | – | – | inactive | – | NC(=O)c1c(NC(=O)c2ccc(CN3CCOCC3)cc2)sc2c1CCC(c1ccc(O)cc1)C2 (stereo not given) | –
11 | Active | Dose-dependent effect | Active | Dose-dependent effect | Active | – | NC(=O)c1c(NC(=O)c2ccc(CN3CCCCC3)cc2)sc2c1CCC(CO)C2 (stereo not given) | –
12 | – | – | – | – | – | Active | NC(=O)c1c(N)sc2c1CCC(CO)C2 (stereo not given) | –
13 | – | – | – | – | inactive | – | NC(=O)c1c(NC(=O)c2ccc(CN3CCOCC3)cc2)sc2c1CCC(C(=O)O)C2 (stereo not given) | –
14 | – | – | – | – | – | Active | O=c1[nH]c(-c2ccc(CN3CCS(=O)(=O)CC3)cc2)nc2sc3c(c12)CCC(CO)C3 (stereo not given) | –
15 | Active | Dose-dependent effect | Active | Dose-dependent effect | Active | – | Cc1nnc(-c2ccc(N3CCC(Oc4cc(F)ccc4Cl)CC3)nn2)o1 | inhibition [15]: Dose-dependent effect; inhibition [16]: Active

Reference: ChEMBL document CHEMBL4043175, “Tetrahydrobenzothiophene carboxamides: Beyond the kinase domain and into the fatty acid realm” (Bioorg Med Chem Lett, 2017)
